Where “and” joins values, the source holds several entries; their conditions need not be identical. Equal values may be shown once. Blank lines part the entries; values can stand above or below the molecule they belong to.
Tested on: MDA-MB-231 complex spheroids, growth inhibition
Test: Anticancer human tumor MDA-MB-231 cell line growth inhibition [Asc];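 note: spheroids exposed to compounds for 7 days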
Conditions: for viability, T/C: stronger effect = lower value
In short: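 Stromal components (HUVEC and hMSC) are co-assembled with the cancer cells into multicellular spheroids. Drugs are then added singly or paired, at concentrations falling by half-log increments from a clinically achievable maximum, capped at 10 microM without known Cmax.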

[1] = curve of first compound, second compound 0.01 µM
[2] = curve of first compound, second compound 0.0316 µM
[3] = curve of first compound, second compound 0.1 µM
[4] = curve of first compound, second compound 0.316 µM
[5] = curve of first compound, second compound 1 µM
[6] = second compound 0.01 µM, first compound 0.0316 µM
[7] = second compound 0.01 µM, first compound 0.1 µM
[8] = second compound 0.01 µM, first compound 0.316 µM
[9] = second compound 0.01 µM, first compound 1 µM
[10] = second compound 0.0316 µM, first compound 0.0316 µM
[11] = second compound 0.0316 µM, first compound 0.1 µM
[12] = second compound 0.0316 µM, first compound 0.316 µM
[13] = second compound 0.0316 µM, first compound 1 µM
[14] = second compound 0.1 µM, first compound 0.0316 µM
[15] = second compound 0.1 µM, first compound 0.1 µM
[16] = second compound 0.1 µM, first compound 0.316 µM
[17] = second compound 0.1 µM, first compound 1 µM
[18] = second compound 0.316 µM, first compound 0.0316 µM
[19] = second compound 0.316 µM, first compound 0.1 µM
[20] = second compound 0.316 µM, first compound 0.316 µM
[21] = second compound 0.316 µM, first compound 1 µM
[22] = second compound 1 µM, first compound 0.0316 µM
[23] = second compound 1 µM, first compound 0.1 µM
[24] = second compound 1 µM, first compound 0.316 µM
[25] = second compound 1 µM, first compound 1 µM

- IC50 [1]: < 3.16 nM
- IC50 [2]: < 3.16 nM
- IC50 [3]: < 3.16 nM
- IC50 [4]: < 3.16 nM
- IC50 [5]: < 3.16 nM
Structure (SMILES): O=C(c1ccc(F)c(F)c1Nc1ccc(I)cc1F)N1CC(O)([C@@H]2CCCCN2)C1 + CNC(C)C(=O)NC1CN(S(=O)(=O)c2cccc(S(=O)(=O)N3CCC4CCC(C(=O)NC(c5ccccc5)c5ccccc5)N4C(=O)C(NC(=O)C(C)NC)C3)c2)CCC2CCC(C(=O)NC(c3ccccc3)c3ccccc3)N2C1=O
- viability, T/C (second compound 0.01 µM, first compound 0.00316 µM): 1.58%
- viability, T/C (second compound 0.01 µM, first compound 0.01 µM): 1.82%
- viability, T/C [6]: 1.57%
- viability, T/C [7]: 1.24%
- viability, T/C [8]: 0.45%
- viability, T/C [9]: 0.19%
- viability, T/C (second compound 0.0316 µM, first compound 0.00316 µM): 2%
- viability, T/C (second compound 0.0316 µM, first compound 0.01 µM): 1.64%
- viability, T/C [10]: 1.23%
- viability, T/C [11]: 0.72%
- viability, T/C [12]: 0.39%
- viability, T/C [13]: 0.17%
- viability, T/C (second compound 0.1 µM, first compound 0.00316 µM): 0.99%
- viability, T/C (second compound 0.1 µM, first compound 0.01 µM): 0.94%
- viability, T/C [14]: 0.88%
- viability, T/C [15]: 0.74%
- viability, T/C [16]: 0.5%
- viability, T/C [17]: 0.25%
- viability, T/C (second compound 0.316 µM, first compound 0.00316 µM): 1.14%
- viability, T/C (second compound 0.316 µM, first compound 0.01 µM): 0.91%
- viability, T/C [18]: 0.9%
- viability, T/C [19]: 1.27%
- viability, T/C [20]: 0.57%
- viability, T/C [21]: 0.2%
- viability, T/C (second compound 1 µM, first compound 0.00316 µM): 1.64%
- viability, T/C (second compound 1 µM, first compound 0.01 µM): 1.24%
- viability, T/C [22]: 1.11%
- viability, T/C [23]: 1.67%
- viability, T/C [24]: 1.13%
- viability, T/C [25]: 0.21%

- IC50 (compound alone, run of 10/24/2022): < 10 nM
- IC50 (compound alone, run of 11/15/2022): < 3.16 nM
- IC50 (curve of compound): < 3.16 nM
Structure (SMILES): CNC(C)C(=O)NC1CN(S(=O)(=O)c2cccc(S(=O)(=O)N3CCC4CCC(C(=O)NC(c5ccccc5)c5ccccc5)N4C(=O)C(NC(=O)C(C)NC)C3)c2)CCC2CCC(C(=O)NC(c3ccccc3)c3ccccc3)N2C1=O (stereo not drawn)
- viability, T/C (compound 0.00316 µM): 5.11% and 4.58% and 5.25%
- viability, T/C (compound 0.01 µM): 2.25% [middle of 14 runs]
- viability, T/C (compound 0.0316 µM): 1.55% [middle of 14 runs]
- viability, T/C (compound 0.1 µM): 1.38% [middle of 12 runs]

- IC50 (curve of compound): > 10000 nM and 3180 nM
Structure (SMILES): O=C(c1cc(Cc2n[nH]c(=O)c3ccccc23)ccc1F)N1CCN(C(=O)C2CC2)CC1
- viability, T/C (compound 0.0316 µM): 95.2% and 99.3% and 106%
- viability, T/C (compound 0.1 µM): 97.2% and 86.9% and 110%
- viability, T/C (compound 0.316 µM): 92.7% and 75.9% and 84.1%
- viability, T/C (compound 1 µM): 90.8% and 88.9% and 83.6%
- viability, T/C (compound 3.16 µM): 87% and 88.3% and 49%

- IC50 [1]: < 31.6 nM
- IC50 [2]: < 31.6 nM
- IC50 [3]: < 31.6 nM
- IC50 [4]: < 31.6 nM
- IC50 [5]: < 31.6 nM
Structure (SMILES): O=C(c1cc(Cc2n[nH]c(=O)c3ccccc23)ccc1F)N1CCN(C(=O)C2CC2)CC1 + CNC(C)C(=O)NC1CN(S(=O)(=O)c2cccc(S(=O)(=O)N3CCC4CCC(C(=O)NC(c5ccccc5)c5ccccc5)N4C(=O)C(NC(=O)C(C)NC)C3)c2)CCC2CCC(C(=O)NC(c3ccccc3)c3ccccc3)N2C1=O
- viability, T/C [6]: 2.12%
- viability, T/C [7]: 2.15%
- viability, T/C [8]: 2.12%
- viability, T/C [9]: 2.46%
- viability, T/C (second compound 0.01 µM, first compound 3.16 µM): 1.41%
- viability, T/C (second compound 0.01 µM, first compound 10 µM): 1.59%
- viability, T/C [10]: 1.57%
- viability, T/C [11]: 1.69%
- viability, T/C [12]: 1.39%
- viability, T/C [13]: 1.53%
- viability, T/C (second compound 0.0316 µM, first compound 3.16 µM): 1.35%
- viability, T/C (second compound 0.0316 µM, first compound 10 µM): 1.61%
- viability, T/C [14]: 1.25%
- viability, T/C [15]: 1.35%
- viability, T/C [16]: 1.63%
- viability, T/C [17]: 1.07%
- viability, T/C (second compound 0.1 µM, first compound 3.16 µM): 1.04%
- viability, T/C (second compound 0.1 µM, first compound 10 µM): 1.01%
- viability, T/C [18]: 1.03%
- viability, T/C [19]: 1.15%
- viability, T/C [20]: 1.4%
- viability, T/C [21]: 1.07%
- viability, T/C (second compound 0.316 µM, first compound 3.16 µM): 0.98%
- viability, T/C (second compound 0.316 µM, first compound 10 µM): 0.83%
- viability, T/C [22]: 1.05%
- viability, T/C [23]: 1.48%
- viability, T/C [24]: 1.17%
- viability, T/C [25]: 0.97%
- viability, T/C (second compound 1 µM, first compound 3.16 µM): 0.82%
- viability, T/C (second compound 1 µM, first compound 10 µM): 0.96%

- IC50 (curve of first compound, second compound 0.03 µM): > 100 nM
- IC50 (curve of first compound, second compound 0.0949 µM): > 100 nM
- IC50 (curve of first compound, second compound 0.3 µM): > 100 nM
- IC50 (curve of first compound, second compound 0.949 µM): > 100 nM
- IC50 (curve of first compound, second compound 3 µM): > 100 nM
Structure (SMILES): NC1CCC(NC2CC2c2ccccc2)CC1 (stereo not drawn) + CCN1C(C(=O)NC23CCC(C(=O)O)(CC2)CC3)C(c2cccc(Cl)c2F)C2(C(=O)Nc3cc(Cl)ccc32)C12CCCCC2
- viability, T/C (second compound 0.03 µM, first compound 0.000316 µM): 91.2%
- viability, T/C (second compound 0.03 µM, first compound 0.001 µM): 94.5%
- viability, T/C (second compound 0.03 µM, first compound 0.00316 µM): 93.4%
- viability, T/C (second compound 0.03 µM, first compound 0.01 µM): 95.2%
- viability, T/C (second compound 0.03 µM, first compound 0.0316 µM): 91.8%
- viability, T/C (second compound 0.03 µM, first compound 0.1 µM): 96.2%
- viability, T/C (second compound 0.0949 µM, first compound 0.000316 µM): 101%
- viability, T/C (second compound 0.0949 µM, first compound 0.001 µM): 103%
- viability, T/C (second compound 0.0949 µM, first compound 0.00316 µM): 101%
- viability, T/C (second compound 0.0949 µM, first compound 0.01 µM): 101%
- viability, T/C (second compound 0.0949 µM, first compound 0.0316 µM): 100%
- viability, T/C (second compound 0.0949 µM, first compound 0.1 µM): 102%
- viability, T/C (second compound 0.3 µM, first compound 0.000316 µM): 102%
- viability, T/C (second compound 0.3 µM, first compound 0.001 µM): 104%
- viability, T/C (second compound 0.3 µM, first compound 0.00316 µM): 101%
- viability, T/C (second compound 0.3 µM, first compound 0.01 µM): 102%
- viability, T/C (second compound 0.3 µM, first compound 0.0316 µM): 102%
- viability, T/C (second compound 0.3 µM, first compound 0.1 µM): 105%
- viability, T/C (second compound 0.949 µM, first compound 0.000316 µM): 105%
- viability, T/C (second compound 0.949 µM, first compound 0.001 µM): 105%
- viability, T/C (second compound 0.949 µM, first compound 0.00316 µM): 105%
- viability, T/C (second compound 0.949 µM, first compound 0.01 µM): 105%
- viability, T/C (second compound 0.949 µM, first compound 0.0316 µM): 104%
- viability, T/C (second compound 0.949 µM, first compound 0.1 µM): 106%
- viability, T/C (second compound 3 µM, first compound 0.000316 µM): 90%
- viability, T/C (second compound 3 µM, first compound 0.001 µM): 91%
- viability, T/C (second compound 3 µM, first compound 0.00316 µM): 89.8%
- viability, T/C (second compound 3 µM, first compound 0.01 µM): 88.2%
- viability, T/C (second compound 3 µM, first compound 0.0316 µM): 87.5%
- viability, T/C (second compound 3 µM, first compound 0.1 µM): 89.2%
